Source: PMC4303209, “A novel phosphatidylinositol 3-kinase (PI3K) inhibitor directs a potent FOXO-dependent, p53-independent cell cycle arrest phenotype characterized by the differential induction of a subset of FOXO-regulated genes” (Breast Cancer Research : BCR, 2014)

Test system: MCF-7 breast cancer cells
Assay: Microarray gene expression analysis (Agilent whole human genome 4 x 44K; compound vs DMSO, LIMMA log2 fold change)
Assay type: cell-based

Compound: Cn1ncc2c(N3CCOCC3)nc(-c3cccc(O)c3)nc21 [ETP-45658]
- PDGFRB log2FC (gene PDGFRB (5159), apoptosis genes): 0.022
- PEG3 log2FC (gene PEG3 (5178), apoptosis genes): 0.028
- PEG10 log2FC (gene PEG10 (23089), apoptosis genes): 0.064
- PF4 log2FC (gene PF4 (5196), apoptosis genes): -0.049
- PHLDA3 log2FC (gene PHLDA3 (23612), apoptosis genes): -0.007
- PIK3CG log2FC (gene PIK3CG (5294), apoptosis genes): -0.029
- PKP1 log2FC (gene PKP1 (5317), apoptosis genes): -0.004
- PLEKHG5 log2FC (gene PLEKHG5 (57449), apoptosis genes): 0.079
- PLSCR3 log2FC (gene PLSCR3 (57048), apoptosis genes): -0.068
- POLB log2FC (gene POLB (5423), apoptosis genes): 0.060
- log2FC (gene POLD4 (Gene 57804), cell cycle genes): -0.353
- POR log2FC (gene POR (5447), apoptosis genes): 0.00332
- POU3F4 log2FC (gene POU3F4 (5456), apoptosis genes): -0.034
- POU4F1 log2FC (gene POU4F1, apoptosis genes): 0.016
- log2FC (gene PPAT (Gene 10606), cell cycle genes): 0.187
- log2FC (gene PPP1CA (Gene 5499), cell cycle genes): -0.227
- log2FC (gene PPP2CA (Gene 5515), cell cycle genes): -0.322
- PPP2R1A log2FC (gene PPP2R1A (5518), apoptosis genes): -0.055
- PRAMEF8 log2FC (gene PRAMEF8 (391002), apoptosis genes): 0.019
- PRAMEF10 log2FC (gene PRAMEF10 (343071), apoptosis genes): 0.00225
- log2FC (gene PRKACB (Gene 5567), cell cycle genes): 0.355
- log2FC PRKAG3 (gene PRKAG3 (Gene 53632), cell cycle genes): -0.00189
- PRKRA log2FC (gene PRKRA (8575), apoptosis genes): 0.029
- PRLR log2FC (gene PRLR (5618), apoptosis genes): -0.012
- PROC log2FC (gene PROC (5624), apoptosis genes): 0.006
- PROP1 log2FC (gene PROP1 (5626), apoptosis genes): -0.275
- PSMA1 log2FC (gene PSMA1 (5682), apoptosis genes): 0.045
- log2FC (gene PSMA2 (Gene 5683), cell cycle genes): 0.460
- log2FC (gene PSMA3 (Gene 5684), cell cycle genes): 0.270
- PSMA5 log2FC (gene PSMA5 (5686), apoptosis genes): -0.038
- log2FC PSMA5 (gene PSMA5 (Gene 5686), cell cycle genes): -0.038
- PSMA7 log2FC (gene PSMA7 (5688), apoptosis genes): 0.359
- log2FC PSMA7 (gene PSMA7 (Gene 5688), cell cycle genes): 0.359
- PSMB3 log2FC (gene PSMB3 (5691), apoptosis genes): -0.030
- log2FC (gene PSMB4 (Gene 5692), cell cycle genes): 0.132
- PSMB7 log2FC (gene PSMB7 (5695), apoptosis genes): -0.00851
- log2FC PSMB7 (gene PSMB7 (Gene 5695), cell cycle genes): -0.00851
- PSMB8 log2FC (gene PSMB8 (5696), apoptosis genes): -0.045
- PSMC4 log2FC (gene PSMC4 (5704), apoptosis genes): -0.021
- log2FC PSMC4 (gene PSMC4 (Gene 5704), cell cycle genes): -0.021
- PSMD2 log2FC (gene PSMD2 (5708), apoptosis genes): 0.090
- PSMD13 log2FC (gene PSMD13 (5719), apoptosis genes): -0.031
- log2FC (gene PSMD14 (Gene 10213), cell cycle genes): 0.447
- log2FC (gene PSME1 (Gene 5720), cell cycle genes): 0.322
- PSME2 log2FC (gene PSME2 (5721), apoptosis genes): 0.039
- log2FC (gene PTTG1 (Gene 9232), cell cycle genes): -0.269
- PYCARD log2FC (gene PYCARD (29108), apoptosis genes): -0.070
- log2FC (gene RAB11FIP3 (Gene 9727), cell cycle genes): -0.225
- log2FC RAD51C (gene RAD51C (Gene 5889), cell cycle genes): -0.019
- log2FC RAE1 (gene RAE1 (Gene 8480), cell cycle genes): 0.005
- RAF1 log2FC (gene RAF1 (5894), apoptosis genes): -0.038
- log2FC (gene RALA (Gene 5898), cell cycle genes): 0.348
- log2FC (gene RALB (Gene 5899), cell cycle genes): 0.324
- RAMP2 log2FC (gene RAMP2 (10266), apoptosis genes): -0.017
- log2FC RANGAP1 (gene RANGAP1 (Gene 5905), cell cycle genes): -0.026
- RAPSN log2FC (gene RAPSN (5913), apoptosis genes): -0.022
- RARB log2FC (gene RARB (5915), apoptosis genes): 0.00564
- RASSF6 log2FC (gene RASSF6 (166824), apoptosis genes): 0.042
- log2FC (gene RBBP8 (Gene 5932), cell cycle genes): 0.568
- log2FC (gene RBL1 (Gene 5933), cell cycle genes): 0.284
- log2FC (gene RBM7 (Gene 10179), cell cycle genes): 0.349
- log2FC (gene RCC1 (Gene 1104), cell cycle genes): -0.365
- log2FC REEP4 (gene REEP4 (Gene 80346), cell cycle genes): -0.031
- RET log2FC (gene RET (5979), apoptosis genes): -0.021
- RHOT2 log2FC (gene RHOT2 (89941), apoptosis genes): -0.087
- log2FC RPA2 (gene RPA2 (Gene 6118), cell cycle genes): 0.00567
- RPS3 log2FC (gene RPS3 (6188), apoptosis genes): 0.020
- RPS6KA2 log2FC (gene RPS6KA2 (6196), apoptosis genes): 0.035
- log2FC (gene RPS6KB1 (Gene 6198), cell cycle genes): 0.426
- RRN3 log2FC (gene RRN3 (653390), apoptosis genes): -0.022
- log2FC (gene RSPO1 (Gene 284654), cell cycle genes): -0.127
- RYR2 log2FC (gene RYR2 (6262), apoptosis genes): -0.020
- S100A9 log2FC (gene S100A9 (6280), apoptosis genes): 0.039
- S100A14 log2FC (gene S100A14 (57402), apoptosis genes): 0.034
- log2FC (gene SART1 (Gene 9092), cell cycle genes): -0.304
- SCIN log2FC (gene SCIN (85477), apoptosis genes): -0.012
- log2FC (gene SEH1L (Gene 81929), cell cycle genes): -0.373
- SEMA5A log2FC (gene SEMA5A (9037), apoptosis genes): -0.032
- log2FC SENP2 (gene SENP2 (Gene 59343), cell cycle genes): -0.00743
- SERINC3 log2FC (gene SERINC3 (10955), apoptosis genes): 0.046
- SERPINE1 log2FC (gene SERPINE1 (5054), apoptosis genes): -0.036
- log2FC (gene SESN1 (Gene 27244), cell cycle genes): 0.237
- SHF log2FC (gene SHF (90525), apoptosis genes): 0.026
- SKIL log2FC (gene SKIL (6498), apoptosis genes): 0.046
- log2FC SKIL (gene SKIL (Gene 6498), cell cycle genes): 0.046
- log2FC (gene SLBP (Gene 7884), cell cycle genes): 0.333
- SLC25A6 log2FC (gene SLC25A6 (293), apoptosis genes): 0.025
- log2FC SLC26A8 (gene SLC26A8 (Gene 116369), cell cycle genes): -0.003
- SLC40A1 log2FC (gene SLC40A1 (30061), apoptosis genes): -0.005
- SMAD1 log2FC (gene SMAD1 (4086), apoptosis genes): -0.074
- SMNDC1 log2FC (gene SMNDC1 (10285), apoptosis genes): -0.102
- SOD1 log2FC (gene SOD1 (6647), apoptosis genes): 0.073
- SOS1 log2FC (gene SOS1 (6654), apoptosis genes): 0.035
- SOX8 log2FC (gene SOX8 (30812), apoptosis genes): -0.391
- log2FC SPO11 (gene SPO11 (Gene 23626), cell cycle genes): 0.008
- SPTAN1 log2FC (gene SPTAN1 (6709), apoptosis genes): 0.094
- log2FC (gene SRC (Gene 6714), cell cycle genes): -0.316
- log2FC (gene STAG1 (Gene 10274), cell cycle genes): 0.343
- STK3 log2FC (gene STK3 (6788), apoptosis genes): 0.083
- SULF1 log2FC (gene SULF1 (23213), apoptosis genes): -0.096
- log2FC (gene SUPT5H (Gene 6829), cell cycle genes): -0.331
- log2FC (gene SUV39H2 (Gene 79723), cell cycle genes): -0.388
- SYCP2 log2FC (gene SYCP2 (10388), apoptosis genes): 0.016
- log2FC SYCP2 (gene SYCP2 (Gene 10388), cell cycle genes): 0.016
- log2FC SYCP3 (gene SYCP3 (Gene 50511), cell cycle genes): 0.00367
- log2FC (gene TAF2 (Gene 6873), cell cycle genes): 0.361
- log2FC TAF6 (gene TAF6 (Gene 6878), cell cycle genes): 0.055
- log2FC (gene TAOK2 (Gene 9344), cell cycle genes): -0.736
- TEK log2FC (gene TEK (7010), apoptosis genes): -0.008
- log2FC (gene TEX14 (Gene 56155), cell cycle genes): 0.240
- log2FC (gene TEX15 (Gene 56154), cell cycle genes): 0.238
- TFAP2D log2FC (gene TFAP2D (83741), apoptosis genes): -0.029
- log2FC (gene TGFA (Gene 7039), cell cycle genes): -0.305
- TGFB2 log2FC (gene TGFB2 (7042), apoptosis genes): -0.011
- log2FC TGFB2 (gene TGFB2 (Gene 7042), cell cycle genes): -0.011
- THEM4 log2FC (gene THEM4 (117145), apoptosis genes): -0.054
- log2FC THOC5 (gene THOC5 (Gene 8563), cell cycle genes): 0.010
- TMBIM4 log2FC (gene TMBIM4 (51643), apoptosis genes): 0.025
- log2FC (gene TMEM67 (Gene 91147), cell cycle genes): 0.184
- TMEM102 log2FC (gene TMEM102 (284114), apoptosis genes): -0.101
- TNFRSF1B log2FC (gene TNFRSF1B (7133), apoptosis genes): -0.022
- TNFRSF8 log2FC (gene TNFRSF8 (943), apoptosis genes): 0.055
- TNFRSF10C log2FC (gene TNFRSF10C (8794), apoptosis genes): 0.00147
- TNFSF8 log2FC (gene TNFSF8 (944), apoptosis genes): -0.043
- TNFSF9 log2FC (gene TNFSF9 (8744), apoptosis genes): 0.017
- TNFSF10 log2FC (gene TNFSF10 (8743), apoptosis genes): -0.021
- TNFSF12 log2FC (gene TNFSF12 (8742), apoptosis genes): 0.112
- TNFSF14 log2FC (gene TNFSF14 (8740), apoptosis genes): 0.017
- TNFSF15 log2FC (gene TNFSF15 (9966), apoptosis genes): 0.027
- TNFSF18 log2FC (gene TNFSF18 (8995), apoptosis genes): 0.00185
- log2FC (gene TP73 (Gene 7161), cell cycle genes): -0.503
- log2FC (gene TPD52L1 (Gene 7164), cell cycle genes): 0.379
- TPX2 log2FC (gene TPX2 (22974), apoptosis genes): 0.049
- TRAF2 log2FC (gene TRAF2 (7186), apoptosis genes): -0.056
- TRAF3IP2 log2FC (gene TRAF3IP2 (10758), apoptosis genes): -0.070
- log2FC TRIP13 (gene TRIP13 (Gene 9319), cell cycle genes): 0.007
- log2FC (gene TUBGCP6 (Gene 85378), cell cycle genes): -0.470
- TXNDC5 log2FC (gene TXNDC5 (81567), apoptosis genes): 0.070
- log2FC TYMS (gene TYMS (Gene 7298), cell cycle genes): -0.0037
- UBD log2FC (gene UBD (10537), apoptosis genes): -0.00756
- UBE2V2 log2FC (gene UBE2V2 (7336), apoptosis genes): -0.109
- UNC13B log2FC (gene UNC13B (10497), apoptosis genes): 0.009
- VDAC2 log2FC (gene VDAC2 (7417), apoptosis genes): 0.033
- VIM log2FC (gene VIM (7431), apoptosis genes): 0.051
- VIP log2FC (gene VIP (7432), apoptosis genes): -0.146
- VNN1 log2FC (gene VNN1 (8876), apoptosis genes): 0.157
- log2FC (gene VRK1 (Gene 7443), cell cycle genes): 0.426
- WNK3 log2FC (gene WNK3 (65267), apoptosis genes): 0.012
- log2FC (gene WTAP (Gene 9589), cell cycle genes): -0.387
- log2FC (gene YY1AP1 (Gene 55249), cell cycle genes): 0.220
- ZBTB16 log2FC (gene ZBTB16 (7704), apoptosis genes): 0.144
- log2FC ZC3H12D (gene ZC3H12D (Gene 85313), cell cycle genes): -0.006
- log2FC (gene ZC3HC1 (Gene 51530), cell cycle genes): 0.230
- ZNF205 log2FC (gene ZNF205 (7755), apoptosis genes): -0.229
- ZNF443 log2FC (gene ZNF443 (10224), apoptosis genes): -0.028
- log2FC (gene ZNF503 (Gene 84858), cell cycle genes): -0.229
- ZNF622 log2FC (gene ZNF622 (90441), apoptosis genes): 0.041
